{"source": "patent USRE40387E1", "about": "“Pharmaceutical compositions, dosage forms and methods for oral administration of epothilones” (Bristol-Myers Squibb Company, priority 2001, dated 2008)", "key": {"[1]": {"experiment": "Pharmacokinetics in rats (intraarterial, oral, intraduodenal)", "assay_type": "in vivo, male Sprague Dawley rats", "experimental": "(§1) Plasma samples from pharmacokinetic/pharmacodynamic studies were analyzed for the concentration of Compound (A) using an LC/MS/MS (liquid chromatography/mass spectrometry/mass spectrometry) assay with a standard curve range of 5 to 20,000 ng/mL (10 to 40,000 nM) for studies in mice and 2 to 1000 ng/mL (4 to 2000 nM) for studies in rats and dogs. In pharmacodynamic studies, concentrations of Compound (A) were determined using the LC/MS/MS assay with a standard curve range of 5 to 20,000 ng/mL (10 to 40,000 nM) in mouse plasma. The LC/MS/MS assay was also used to determine the concentrations of Compound (B), a degradation product of Compound (A) formed in the stock/dosing solution or in vivo, in rat and dog plasma. The structure of Compound (B) is: [drawing 9]\nCompound (A) was given as a single intraarterial (2 mg/kg; 10 min infusion), oral (8 mg/kg), and intraduodenal (8 mg/kg) dose to fasted male Sprague Dawley rats (n×3-6 per group). All dosing solutions were prepared in 20% ethanol. Plasma samples were obtained over a period of 24 h after dosing and the concentration of Compound (A) was determined using the LC/MS/MS assay."}, "rat liver microsomes": {"test_system": "rat liver microsomes", "experiment": "Oxidative metabolism in rat liver microsomes", "assay_type": "in vitro ADME", "details": "40 :M, NADPH", "experimental": "Upon incubation of Compound (A) (40 :M) with mouse, rat, dog, and human liver microsomes fortified with nicotinamide adenine dinucleotide phosphate (NADPH), the rate of oxidative metabolism of Compound (A) was 2.1, 0.7, 1.2 and 1.3 nmol/min/mg protein, respectively. Moreover, the metabolite distribution was similar among all species (metabolite masses included several […] and M−2 compounds). Qualitatively, there appeared to be similar production of metabolites of Compound (A) after incubation with rat or human hepatocytes compared to microsomal incubations. Products similar to those arising from the chemical degradation of Compound (A) appeared to be the major products in the hepatocyte incubations."}, "[2]": {"experiment": "Stability of aqueous solution of Compound (A) (t95)", "assay_type": "physicochemical", "details": "37° C.", "experimental": "Certain epothilones including the preferred epothilone, Compound (A), are unstable in acidic aqueous environments and decompose, presumably by an acid catalyzed hydrolytic opening of the epoxide ring. For example, the time for 5% drug loss (t95) at 37° C. for an aqueous solution of Compound (A) is approximately 38 minutes at pH 7.4 but only about 0.2 minutes at pH 2.5. Thus, when epothilones of Formula (Ia) or (Ib), or a pharmaceutically acceptable salt, solvate, clathrate, hydrate, or prodrug thereof, are orally administered they decompose in the stomach of the patient such that they are either minimally absorbed or not absorbed by the gastrointestinal tract."}, "[3]": {"experiment": "Pharmacokinetics in mice (IV and oral)", "assay_type": "in vivo, female CDF", "experimental": "as §1\nCompound (A) was administered intravenously (5 mg/kg) and orally (48 mg/kg) to female CDF, mice. For the IV route, Compound (A) was dissolved in 20% ethanol solution and was given as a bolus dose. For the oral route, solutions of Compound (A) were prepared as a 3:7 mixture of ethanol:phosphate buffered saline (0.25 M, pH 8.0) and administered by gavage. Plasma samples for determinating concentrations of Compound (A) were taken from 3 separate mice at 5, 15, and 45 min, and 2, 4, and 6 h after the IV dose, and at 15 and 45 min, and 2, 4, and 6 h after the oral dose."}, "[4]": {"experiment": "Pharmacokinetics in dogs, 10 min IV infusion", "assay_type": "in vivo, male beagle dogs", "experimental": "as §1\nMale beagle dogs (n=3) were administered a 10 min IV infusion of 0.5 mg/kg of Compound (A) (given as a 10% ethanol solution). Plasma samples were taken over a period of 32 h after dose to determine the plasma concentrations of Compound (A). […] The T-HALF was estimated to be approximately 24 h."}, "CYP2C19": {"molecular_target": "CYP2C19 (Homo sapiens, UniProt P33261)", "sequence (P33261 whole entry, canonical isoform)": "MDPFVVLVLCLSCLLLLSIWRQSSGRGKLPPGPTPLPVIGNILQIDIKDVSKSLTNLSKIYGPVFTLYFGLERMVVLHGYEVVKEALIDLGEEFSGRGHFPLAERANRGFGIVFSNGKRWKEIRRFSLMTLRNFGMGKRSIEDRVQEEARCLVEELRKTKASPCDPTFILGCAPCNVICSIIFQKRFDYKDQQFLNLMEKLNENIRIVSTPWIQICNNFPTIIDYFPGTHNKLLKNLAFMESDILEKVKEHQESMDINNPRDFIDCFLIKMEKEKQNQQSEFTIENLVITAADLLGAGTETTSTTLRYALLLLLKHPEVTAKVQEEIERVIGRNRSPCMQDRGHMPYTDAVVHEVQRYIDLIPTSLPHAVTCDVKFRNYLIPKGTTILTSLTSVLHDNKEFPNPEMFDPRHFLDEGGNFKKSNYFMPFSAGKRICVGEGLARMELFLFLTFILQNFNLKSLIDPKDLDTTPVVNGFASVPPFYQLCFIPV", "experiment": "Inhibition of recombinant human CYP2C19 (deethylation of 3-cyano-7-ethoxycoumarin)", "assay_type": "in vitro ADME", "details": "recombinant human CYP isoform", "experimental": "(§2) The ability of Compound (A) to inhibit the major human cytochrome P450s (CYPs) responsible for the metabolism of drugs was evaluated in vitro using recombinant human CYP isoforms. IC50 values for inhibition of deethylation of 3-cyano-7-ethoxycoumarin (CYP1A2, CYP2C9, CYP2C19, and CYP2D6) and for inhibition of dealkylation of benzoyl-resorufin (CYP3A4) were determined."}, "CYP1A2": {"molecular_target": "T1, CYP1A2 (Homo sapiens, UniProt P05177)", "T1 sequence (P05177 1-516)": "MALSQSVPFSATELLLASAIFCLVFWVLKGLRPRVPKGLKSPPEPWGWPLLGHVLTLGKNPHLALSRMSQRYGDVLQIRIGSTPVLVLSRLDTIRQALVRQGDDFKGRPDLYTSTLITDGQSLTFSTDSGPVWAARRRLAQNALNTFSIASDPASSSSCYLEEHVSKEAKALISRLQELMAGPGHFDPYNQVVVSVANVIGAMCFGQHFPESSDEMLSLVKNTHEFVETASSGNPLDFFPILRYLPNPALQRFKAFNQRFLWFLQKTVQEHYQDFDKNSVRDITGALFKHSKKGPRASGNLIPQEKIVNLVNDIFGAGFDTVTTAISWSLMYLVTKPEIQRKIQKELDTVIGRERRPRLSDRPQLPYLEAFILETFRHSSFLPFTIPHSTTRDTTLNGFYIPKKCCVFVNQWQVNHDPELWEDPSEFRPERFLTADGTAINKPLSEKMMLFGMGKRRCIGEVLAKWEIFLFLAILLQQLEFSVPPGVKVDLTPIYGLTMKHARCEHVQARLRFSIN", "experiment": "Inhibition of recombinant human CYP1A2 (deethylation of 3-cyano-7-ethoxycoumarin)", "assay_type": "in vitro ADME", "details": "recombinant human CYP isoform", "experimental": "as §2"}}}
{"smiles": "C/C(=C\\c1csc(C)n1)[C@@H]1C[C@@H]2O[C@]2(C)CCC[C@H](C)[C@H](O)[C@@H](C)C(=O)C(C)(C)[C@@H](O)CC(=O)N1", "note": "(relative stereo) [Compound (A), [1S-[1R*,3R*(E),7R*,10S*,11R*,12R*,16S*]]-7,11-dihydroxy 8,8,10,12,16-pentamethyl-3-[1-methyl-2-(2-methyl-4-thiazolyl)ethenyl-4-aza-17-oxobicyclo[14.1.0]heptadecane-5,9-dione]", "values": [{"measurement": "CLT (mean)", "setting": "[1]; intraarterial 2 mg/kg", "result": 56, "unit": "mL/min/kg"}, {"measurement": "VSS (mean)", "setting": "[1]; intraarterial 2 mg/kg", "result": 23, "unit": "L/kg"}, {"measurement": "mean T-HALF", "setting": "[1]; intraarterial 2 mg/kg", "result": 9.6, "unit": "h"}, {"measurement": "CLT as percent of liver blood flow", "setting": "[1]; intraarterial 2 mg/kg, liver blood flow 56 mL/min/kg", "result": 100, "unit": "%"}, {"measurement": "Tmax", "setting": "[1]; intraduodenal 8 mg/kg", "result": 4.8, "unit": "min"}, {"measurement": "absolute oral bioavailability", "setting": "[1]; intraduodenal 8 mg/kg", "result": 27, "unit": "%"}, {"measurement": "mean CMAX", "setting": "[1]; intraduodenal 8 mg/kg", "result": 642, "unit": "ng/mL"}, {"measurement": "Tmax", "setting": "[1]; oral 8 mg/kg", "result": 10.2, "unit": "min"}, {"measurement": "absolute oral bioavailability", "setting": "[1]; oral 8 mg/kg", "result": 7.5, "unit": "%"}, {"measurement": "mean CMAX", "setting": "[1]; oral 8 mg/kg", "result": 228, "unit": "ng/mL"}, {"measurement": "rate of oxidative metabolism", "setting": "rat liver microsomes", "result": 0.7, "unit": "nmol/min/mg protein"}, {"measurement": "time for 5% drug loss (t95)", "setting": "[2]; pH 2.5", "result": "about 0.2 minutes"}, {"measurement": "time for 5% drug loss (t95)", "setting": "[2]; pH 7.4", "result": "approximately 38 minutes"}, {"measurement": "steady-state volume of distribution (VSS)", "setting": "[3]; IV 5 mg/kg", "result": 6.3, "unit": "L/kg"}, {"measurement": "terminal elimination half-life (T-HALF)", "setting": "[3]; IV 5 mg/kg", "result": "approximately 3 h"}, {"measurement": "CLT as percent of liver blood flow", "setting": "[3]; IV 5 mg/kg, liver blood flow 90 mL/min/kg", "result": 76, "unit": "%"}, {"measurement": "systemic clearance or total body clearance (CLT)", "setting": "[3]; IV bolus 5 mg/kg", "result": 68, "unit": "mL/min/kg"}, {"measurement": "absolute oral bioavailability", "setting": "[3]; oral 48 mg/kg vs IV 5 mg/kg", "result": 31, "unit": "%"}, {"measurement": "peak plasma concentration (CMAX)", "setting": "[3]; oral 48 mg/kg, ethanol:phosphate buffered saline 3:7", "result": 5983, "unit": "ng/mL"}, {"measurement": "CLT (mean)", "setting": "[4]; 10 min IV infusion 0.5 mg/kg", "result": 17.3, "unit": "mL/min/kg"}, {"measurement": "T-HALF", "setting": "[4]; IV 0.5 mg/kg", "result": "approximately 24 h"}, {"measurement": "mean VSS", "setting": "[4]; IV 0.5 mg/kg", "result": 25.2, "unit": "L/kg"}, {"measurement": "CLT as percent of liver blood flow", "setting": "[4]; IV 0.5 mg/kg, liver blood flow 30.9 mL/min/kg", "result": "about 56%"}, {"measurement": "AUC, mean (SD)", "setting": "[4]; preliminary IV pharmacokinetic study, 0.5 mg/kg", "result": "483 (34) h.ng/mL"}, {"measurement": "inhibition of CYP2C19", "setting": "CYP2C19", "result": "did not inhibit"}, {"measurement": "inhibition of CYP1A2", "setting": "CYP1A2", "result": "did not inhibit"}]}
